Measurements reported in patent publication US20180289692A1, “TLR MODULATORS AND METHODS OF USE” (CELGENE CORPORATION, priority 2015, published 2018).
Oligonucleotides are written 5' to 3', each unit as a sugar letter and its base; * is a phosphorothioate linkage, no mark a phosphodiester; rarer units and linkages stand in square brackets, end groups in braces. Plain capitals give the bases only. d = 2'-deoxy (DNA); m = 2'-O-methyl

Tests used:
human pDCs [1] = assay: Surface ICOS-L and PD-L1 expression in CCR6+CD123+ human pDCs by FACS; type: cell-based; details: human pDCs, 24 hrs, FIG. 2B
Method: To evaluate surface ICOS-L, PD-L1 expression in the CCR6+CD123+ pDC cell subsets, PBMCs were incubated on ice in the presence of Fc-Block (BD Pharmingen) for 20 minutes, washed, and incubated with antibodies specific for surface molecules or isotype-matched control mAbs. APC-labeled anti-human ICOS-L mAb were purchased from BioLegend, PECY-7-labeled anti-human CCR6 mAb, FITC-labeled anti-human PD-L1 mAb and PerCP-Cy5.5 labeled anti-human CD123 mAb were purchased from BD Biosciences. The stained cells were then subjected to FACS (FACSCanto, BD Biosciences) using FACSDiva software. FACS analysis was performed using FlowJo software. Single, viable cells in the CCR6+CD123+ pDC gates were analyzed. The flow cytometric results are expressed as the percentage and MFI of ICOSL-, or PD-L1-expressing cells in each gate.
pDCs were isolated and ICOS-L expression was analyzed as described in Example 2.

[2] = test system: canonical NF-κB promoter reporter; assay: Canonical NF-κB promoter reporter construct in RAW264.7 macrophage cells (FIG. 10); type: cell-based, mouse; details: 24 hrs
Method: Mouse RAW264.7 macrophage cells containing a reporter construct driven by a canonical NF-κB promoter were plated in 96-well plates at 50,000 cells/well. […] The supernatant was harvested and tested for optical density.

human pDCs [3] = assay: Intracellular IL-10, TGF-β1 and IDO expression in CCR6+CD123+ human pDCs by FACS; type: cell-based; details: 24 hrs, FIG. 2A
Source text: To evaluate intracellular IL-10, TGFβ 1 and IDO expression in human pDCs, the cells were first stained with PECY-7-labeled anti-human CCR6 mAb (BD Biosciences), PerCP-Cy5.5 labeled anti-human CD123 mAb (BD Biosciences). Stained cells were then fixed and permeabilized using a Cytofix/Cytoperm kit (BD Biosciences) according to the manufacturer's instructions and stained with PE-labeled anti-human IDO (Biolegend), APC-labeled anti-human IL-10 mAb and FITC-labeled anti-human TGF-β1 (BD Biosciences), or isotype-matched control mAbs. The stained cells were acquired by FACSCanto using the FACSDiva software. FACS analysis was performed using FlowJo software. Single, viable cells in the CCR6+CD123+ pDC gates were analyzed. The flow cytometric results are expressed as the percentage and MFI of IL-10-, TGF-β1- or IDO-expressing cells in each gate. Results are expressed as the mean±SEM of cells quantified.
IL10 was alternatively measured in cellular supernatants by ELISA using standard protocols.

human PBMCs = assay: Cytokine production by human PBMCs treated with ODNs, MagPix Multi-Plex; type: cell-based; details: human PBMC, 24 hrs
Method: PBMC from 3 donors were isolated from Buffy Coat (Blood Center of NY). The cells were washed with PBS and re-suspended in RPMI-1640 Media with 5% Human AB Serum, 1% Pen/Strep and 2 mM L-glutamine. The cells were then plated in 96-well plates at 250,000 cells/well. […] After 24 hrs, the supernatant was harvested and tested for cytokine production using MagPix Multi-Plex Technology. The following cytokines were tested: IL-6, IL-10, IL-12p40, IFN-α, IFN-γ, IP-10, IL-1β and TNF-α.

[4] = test system: canonical NF-κB promoter reporter; assay: Mouse Raw Blue Reporter Cells, SEAP reporter driven by canonical NF-κB promoter (FIG. 11); type: cell-based; details: mouse macrophages, 24 hrs; for activation of canonical NF-κB reporter: SEAP, COMPOUND (I) up to 10 μM
Method: Mouse Raw Blue Reporter Cells (Invivogen), containing a secreted embryonic alkaline phosphatase (SEAP) reporter gene driven by canonical NF-κB promoter, were plated in 96-well plates at 50,000 cells/well in DMEM Media supplemented with 10% FBS, 2 mM L-glutamine, 1% Pen/Strep, […] Normacin. […] The supernatant was harvested and tested for SEAP production by measuring OD at 630 nm.

mouse macrophages = assay: TNFα and IL-10 production in mouse macrophages (Raw Blue cells), MagPix; type: cell-based; details: 24 hrs
Method: Mouse Raw Blue Reporter Cells (Invivogen) were plated in 96-well plates at 50,000 cells/well in DMEM Media supplemented with 10% FBS, 2 mM L-glutamine, 1% Pen/Strep, […] Normacin. […] The supernatant was harvested and tested for TNFα and IL-10 production using MagPix Multi-Plex technology.

| Substance | IFN-γ (human PBMCs; high-dose ODN 10 μM) [pg/mL] | IL-1β (human PBMCs; high-dose ODN 10 μM) [pg/mL] | IL-6 (human PBMCs; high-dose ODN 10 μM) [fold change] | IL-10 (human PBMCs; high-dose ODN 10 μM) [fold change] | IL-12p40 (human PBMCs; high-dose ODN 10 μM) [pg/mL] | IP10 (human PBMCs; high-dose ODN 10 μM) [fold change] | TNF-α (human PBMCs; high-dose ODN 10 μM) [fold change] | IFN-γ (human PBMCs; low-dose ODN 0.1 μM) [pg/mL] | IL-1β (human PBMCs; low-dose ODN 0.1 μM) [pg/mL] | IL-6 (human PBMCs; low-dose ODN 0.1 μM) [fold change] | IL-10 (human PBMCs; low-dose ODN 0.1 μM) [fold change] | IL-12p40 (human PBMCs; low-dose ODN 0.1 μM) [pg/mL] | IP10 (human PBMCs; low-dose ODN 0.1 μM) [fold change] | TNF-α (human PBMCs; low-dose ODN 0.1 μM) [fold change] | activation of canonical NF-κB reporter [4] | further results |
| --- | --- | --- | --- | --- | --- | --- | --- | --- | --- | --- | --- | --- | --- | --- | --- | --- |
| ODN302: 5′-GTCGCTCTTCTCCTCCGCCAG-3′, fully PS; scrambled (non-SMAD7 AON) control sequence with two CG sequences (DNA dG*dT*dC*dG*dC*dT*dC*dT*dT*dC*dT*dC*dC*dT*dC*dC*dG*dC*dC*dA*dG) | 9.7 | 3.9 | 41 | 1.5 | 5.2 | 4.4 | 9.3 | 1.5 | 0.2 | 19 | 1.5 | 0.7 | 13.9 | 2.4 |  | PD-L1 protein induction (human pDCs [1]): can induce; activation of the NF-κB construct ([2]; 0.1-100 μM): Moderate activation; ODN concentration at which activation of the NF-κB construct was observed [2]: about 1 μM; TGF-β1 protein induction (human pDCs [3]): can induce |
| ODN1826 |  |  |  |  |  |  |  |  |  |  |  |  |  |  | potent activator | concentration from which the NF-κB reporter is activated [4]: ≤ 0.01 µM; TNFα protein expression (mouse macrophages; FIG. 12, COMPOUND (I) up to 10 μM): induce; IL-10 protein expression (mouse macrophages; FIG. 13, COMPOUND (I) up to 10 μM): induce |
| ODN7040C: 5′-CTGCCAAGTTCACCTGCA*C*C*-3′, PO; * = 2′OMe; control lacking CG-dinucleotide sequences (DNA dCdTdGdCdCdAdAdGdTdTdCdAdCdCdTdGdCmAmCmC) | 0.2 | 0.5 | 2.1 | 1 | 0.1 | 1.4 | 1.4 | 0.2 | 0.6 | 1.2 | 1 | 0.1 | 1.1 | 1.1 | did not activate |  |
